Results on 10 compounds are retold here after patent US6784137B2, “6-aryl-4-aminopicolinates and their use as herbicides” (Dow AgroSciences LLC, priority 2001, dated 2004).

Data set [1] relates to Barnyardgrass (Echinochloa crus-galli). The experiment in a line: Postemergence herbicidal activity, greenhouse spray. Type of data set: in vivo. The settings on record: Echinochloa crus-galli, post-emergence, 336 h, visual score after 2 weeks, read-out: Post-emergent % control ECHCG; for pest or weed control at 500 ppm / pest or weed control at 250 ppm: Table 1; for pest or weed control at 500 ppm: rate 500 ppm; for pest or weed control at 250 ppm: rate 250 ppm. The method in brief:
(§1)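 Seedlings were raised under greenhouse conditions for 7-21 days and used at the first or second true leaf stage. Each was sprayed evenly with about 1.5 mL of test solution by atomizer at […]. Treated pots then returned to the greenhouse, watered from below to avoid wash-off.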

Data set [2] deals with Cocklebur (Xanthium strumarium). The data set is described as above. In kind it is in vivo. The settings on record: Xanthium strumarium, post-emergence, 336 h, visual score after 2 weeks, read-out: Post-emergent % control XANST; for pest or weed control at 500 ppm / pest or weed control at 250 ppm: Table 1; for pest or weed control at 500 ppm: rate 500 ppm, 0 no injury, 100 complete kill; for pest or weed control at 250 ppm: rate 250 ppm. An outline of the steps: as §1

The subject of data set [3] is Lambsquarter (Chenopodium album). The description is as above. Type of data set: in vivo. Conditions: Chenopodium album, post-emergence, 336 h, visual score after 2 weeks, read-out: Post-emergent % control CHEAL; for pest or weed control at 500 ppm / pest or weed control at 250 ppm: Table 1; for pest or weed control at 500 ppm: rate 500 ppm; for pest or weed control at 250 ppm: rate 250 ppm. An outline of the steps: as §1

Data set [4] has as its system Yellow nutsedge (Cyperus esculentus). The data set is described as above. In kind it is in vivo. The settings on record: Cyperus, post-emergence, 336 h, visual score after 2 weeks, read-out: Post-emergent % control CYPES; for pest or weed control at 500 ppm / pest or weed control at 250 ppm: Table 1; for pest or weed control at 500 ppm: rate 500 ppm; for pest or weed control at 250 ppm: rate 250 ppm. The method in brief: as §1

Data set [5] relates to Crabgrass(large) (Digitaria sanguinalis). The experiment in a line: Preemergence herbicidal activity, soil spray. Conditions: Digitaria sanguinalis, pre-emergence, 504 h, Table 5, visual score after 3 weeks, read-out: Pre-emergent % control DIGSA; for pest or weed control at 560 ppm: rate 560 ppm; for pest or weed control at 140 ppm: rate 140 ppm. In kind it is in vivo. The text has this: (§2) Seeds of the desired test plant species were planted in a soil matrix prepared by mixing a loam soil (43 percent silt, 19 percent clay, and 38 percent sand, with a pH of about 8.1 and an organic matter content of about 1.5 percent) and sand in a 70 to 30 ratio. The soil matrix was contained in plastic pots with a surface area of 113 square centimeters. When required to ensure good germination and healthy plants, a fungicide treatment and/or other chemical or physical treatment was applied. A weighed amount, determined by the highest rate to be tested, of each test compound was placed in a 20 mL glass vial and was dissolved in 4 mL of a 97:3 v/v (volume/volume) mixture of acetone and dimethyl sulfoxide to obtain concentrated stock solutions. […] The stock solutions obtained were diluted with a 99.9:0.1 mixture of water and Tween® 155 surfactant to obtain application solutions of known concentration. The solutions containing the highest concentration to be tested were prepared by diluting 2 mL aliquots of the stock solution with 15 mL of the mixture and lower concentrations were prepared by serial dilution of the stock solution. A 2.5 mL aliquot of each solution of known concentration was sprayed evenly onto the soil surface (113 sq. cm) of each seeded pot using a Cornwall 5.0 mL glass syringe fitted with a TeeJet TN-3 hollow cone nozzle to obtain thorough coverage of the soil in each pot. Control pots were sprayed in the same manner with the aqueous mixture. The treated pots and control pots were placed in a greenhouse maintained with an approximate 15 hr photoperiod and temperatures of about 23-29° C. during the day and 22-28° C. during the night. Nutrients and water were added on a regular basis and supplemental lighting was provided with overhead metal halide 1000-Watt lamps as necessary. The water was added by top-irrigation.

Data set [6] has as its system Giant Foxtail (Setaria faberi). The data set is described as follows: Preemergence herbicidal activity, soil spray. Type of data set: in vivo. The settings on record: Setaria faberi, pre-emergence, 504 h, Table 5, visual score after 3 weeks, read-out: Pre-emergent % control SETFA; for pest or weed control at 560 ppm: rate 560 ppm; for pest or weed control at 140 ppm: rate 140 ppm.
Source text: as §2

For data set [7], the system named is Lambsquarter (Chenopodium album). The data set is described as follows: Preemergence herbicidal activity, soil spray. In kind it is in vivo. Conditions: Chenopodium album, pre-emergence, 504 h, Table 5, visual score after 3 weeks, read-out: Pre-emergent % control CHEAL; for pest or weed control at 560 ppm: rate 560 ppm, 100 complete kill or no germination; for pest or weed control at 140 ppm: rate 140 ppm.
Source text: as §2

The test system of data set [8] is Pigweed (redroot) (Amaranthus retroflexus). The data set is described as follows: Preemergence herbicidal activity, soil spray. Type of data set: in vivo. Conditions: Amaranthus retroflexus, pre-emergence, 504 h, Table 5, visual score after 3 weeks, read-out: Pre-emergent % control AMARE; for pest or weed control at 560 ppm: rate 560 ppm; for pest or weed control at 140 ppm: rate 140 ppm.
Source text: as §2

By melting point is commonly meant the temperature of the solid-liquid transition. In turn, `COC(=O)c1nc(-c2ccc(Cl)cc2)c(F)c(N)c1F` [Compound 90, Methyl 4-amino-3,5-difluoro-6-(4-chlorophenyl)pyridine-2-carboxylate] gave a melting point of 165 to 166 °C. The pest or weed control at 500 ppm in [1] came to 98%. Besides, the pest or weed control at 500 ppm in data set [2] was 100%. Besides, the pest or weed control at 500 ppm in data set [3] was determined as 100%. Besides, the pest or weed control at 500 ppm in data set [4] came to 90%. In addition, the pest or weed control at 560 ppm in data set [5] is 100%. For the same compound, the pest or weed control at 560 ppm in [6] was 100%. Moreover, the pest or weed control at 560 ppm in data set [7] worked out at 100%. In addition, the pest or weed control at 560 ppm in data set [8] stood at 100%.
The compound `COC(=O)c1nc(-c2ccc(C)cc2)c(F)c(N)c1F` [Compound 91, Methyl 4-amino-3,5-difluoro-6-(4-methylphenyl)pyridine-2-carboxylate] returned a melting point of 145 to 146 °C. The pest or weed control at 500 ppm in data set [1] came out at 90%. Also, the pest or weed control at 500 ppm in [2] was 100%. Besides, the pest or weed control at 500 ppm in [3] amounted to 100%. Also, in data set [4], the pest or weed control at 500 ppm turned out to be 80%. In addition, the pest or weed control at 560 ppm in data set [5] amounted to 100%. Also, the pest or weed control at 560 ppm in [6] is 60%. Besides, in data set [7], the pest or weed control at 560 ppm is 90%. Besides, in [8], the pest or weed control at 560 ppm turned out to be 100%.
The compound `COC(=O)c1nc(-c2ccc(Cl)cc2F)c(F)c(N)c1F` [Compound 93, Methyl 4-amino-3,5-difluoro-6-(4-chloro-2-fluorophenyl)pyridine-2-carboxylate] had a melting point of 182 to 183 °C. Besides, the pest or weed control at 500 ppm in [1] amounted to 90%. For the same compound, the pest or weed control at 500 ppm in data set [2] was found to be 100%. Moreover, the pest or weed control at 500 ppm in data set [3] worked out at 95%. Moreover, in data set [4], the pest or weed control at 500 ppm was determined as 80%. In addition, the pest or weed control at 560 ppm in data set [5] is 30%. Also, the pest or weed control at 560 ppm in data set [6] was 50%. The pest or weed control at 560 ppm in data set [7] was determined as 100%. Also, the pest or weed control at 560 ppm in [8] is 100%.
For the compound `Cc1cccc(-c2cc(N)c(Cl)c(C(=O)O)n2)c1` [Compound 138, 4-Amino-3-chloro-6-(3-methylphenyl)pyridine-2-carboxylic acid], the melting point was 173 to 175 °C. The pest or weed control at 250 ppm in data set [1] was found to be 50%. In data set [2], the pest or weed control at 250 ppm is 100%. For the same compound, the pest or weed control at 250 ppm in data set [3] turned out to be 100%. Further, in [4], the pest or weed control at 250 ppm was 20%. For the same compound, in data set [5], the pest or weed control at 560 ppm turned out to be 100%. For the same compound, in data set [6], the pest or weed control at 560 ppm turned out to be 98%. For the same compound, the pest or weed control at 560 ppm in data set [7] was 100%. The pest or weed control at 560 ppm in data set [8] was 100%.
Compound `COc1ccccc1-c1cc(N)c(Cl)c(C(=O)O)n1` [Compound 139, 4-Amino-3-chloro-6-(2-methoxyphenyl)pyridine-2-carboxylic acid] registered a melting point of 177 to 179 °C. Besides, the pest or weed control at 250 ppm in data set [1] is 70%. Also, the pest or weed control at 250 ppm in data set [2] came out at 100%. Besides, in [3], the pest or weed control at 250 ppm was 95%. Further, the pest or weed control at 250 ppm in [4] turned out to be 30%. In data set [5], the pest or weed control at 560 ppm is 100%. Also, the pest or weed control at 560 ppm in data set [6] was determined as 100%. Also, the pest or weed control at 560 ppm in [7] is 100%. In data set [8], the pest or weed control at 560 ppm was 100%.
For `COc1ccc(-c2cc(N)c(Cl)c(C(=O)O)n2)cc1` [Compound 141, 4-Amino-3-chloro-6-(4-methoxyphenyl)pyridine-2-carboxylic acid], the melting point came out at 192 °C. The pest or weed control at 250 ppm in data set [1] stood at 80%. For the same compound, the pest or weed control at 250 ppm in [2] came out at 100%. Moreover, in [3], the pest or weed control at 250 ppm turned out to be 100%. Moreover, the pest or weed control at 250 ppm in [4] was determined as 10%. In addition, in [5], the pest or weed control at 560 ppm came to 60%. For the same compound, the pest or weed control at 560 ppm in data set [6] came out at 70%. In data set [7], the pest or weed control at 560 ppm was found to be 100%. The pest or weed control at 560 ppm in data set [8] came out at 98%.
For the compound `Nc1cc(-c2cccc(Cl)c2)nc(C(=O)O)c1Cl` [Compound 143, 4-Amino-3-chloro-6-(3-chlorophenyl)pyridine-2-carboxylic acid], the melting point is 171 °C. In [1], the pest or weed control at 500 ppm was found to be 70%. Further, in [2], the pest or weed control at 500 ppm was 100%. The pest or weed control at 500 ppm in [3] turned out to be 100%. Besides, in data set [4], the pest or weed control at 500 ppm is 40%. Moreover, in data set [5], the pest or weed control at 560 ppm was 100%. In addition, in data set [6], the pest or weed control at 560 ppm is 100%. Further, in data set [7], the pest or weed control at 560 ppm worked out at 100%. For the same compound, the pest or weed control at 560 ppm in data set [8] worked out at 100%.
`Cc1cc(-c2cc(N)c(Cl)c(C(=O)O)n2)ccc1Cl` [Compound 149, 4-Amino-3-chloro-6-(4-chloro-3-methylphenyl)pyridine-2-carboxylic acid] had a melting point of 190 to 191 °C. Moreover, the pest or weed control at 500 ppm in [1] came to 95%. For the same compound, in data set [2], the pest or weed control at 500 ppm came to 100%. In data set [3], the pest or weed control at 500 ppm amounted to 100%. Further, the pest or weed control at 500 ppm in [4] was 100%. The pest or weed control at 140 ppm in data set [5] was determined as 100%. Moreover, the pest or weed control at 140 ppm in data set [6] was 100%. For the same compound, the pest or weed control at 140 ppm in data set [7] stood at 100%. Besides, the pest or weed control at 140 ppm in [8] was 100%.
`Nc1cc(-c2ccc(Cl)c(Cl)c2)nc(C(=O)O)c1Cl` [Compound 150, 4-Amino-3-chloro-6-(3,4-dichlorophenyl)pyridine-2-carboxylic acid] registered a melting point of 185 to 186 °C. For the same compound, in data set [1], the pest or weed control at 500 ppm is 95%. Further, the pest or weed control at 500 ppm in [2] was determined as 100%. In addition, the pest or weed control at 500 ppm in data set [3] was found to be 100%. In [4], the pest or weed control at 500 ppm was 95%. Also, the pest or weed control at 140 ppm in data set [5] came out at 90%. For the same compound, the pest or weed control at 140 ppm in data set [6] was determined as 100%. Further, the pest or weed control at 140 ppm in data set [7] was found to be 100%. Moreover, the pest or weed control at 140 ppm in data set [8] was found to be 100%.
For the compound `Nc1cc(-c2ccc(F)c(Cl)c2)nc(C(=O)O)c1Cl` [Compound 151, 4-Amino-3-chloro-6-(3-chloro-4-fluorophenyl)pyridine-2-carboxylic acid], the melting point was 183 to 184 °C. Further, in data set [1], the pest or weed control at 500 ppm is 100%. In data set [1] (Table 2, rate 125 ppm), the pest or weed control at 125 ppm was determined as 85%. The pest or weed control at 500 ppm in [2] was found to be 100%. Besides, in data set [2] (Table 2, rate 125 ppm), the pest or weed control at 125 ppm is 100%. Further, the pest or weed control at 500 ppm in data set [3] is 100%. For the same compound, the pest or weed control at 125 ppm in data set [3] (Table 2, rate 125 ppm) amounted to 100%. The pest or weed control at 500 ppm in [4] is 85%. The pest or weed control at 125 ppm in [4] (Table 2, rate 125 ppm) worked out at 90%. Besides, the pest or weed control at 140 ppm in data set [5] was 100%. In addition, in data set [6], the pest or weed control at 140 ppm was 100%. For the same compound, the pest or weed control at 140 ppm in [7] turned out to be 100%. Further, in data set [8], the pest or weed control at 140 ppm is 100%.
